Reference: US20260176320A1, “MODULATORS OF G-PROTEIN COUPLED RECEPTORS” (priority 2018, published 2026)
Like-named read-outs stand apart in the source and are kept apart here.

Experiments:
Type in all cases: cell-based
GLP-1R [1] = biological target: T1, GLP-1R (Homo sapiens, UniProt P43220); test: HitHunter cAMP assay (GLP-1R); details: cAMP; for Emax: read-out: (Emax) GLP-1R
Procedure, shortened: (§1)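 Cells were resuspended in HBSS plus HEPES, IBMX (625 μM) and BSA, then dispensed with antibody at 10,000 per well. Agonists followed as 22-point twofold series, 30 min at room temperature. Antibody reagent and detection steps ran 1 h and overnight in the dark before luminescence.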

GLP-1R [2] = biological target: T1, GLP-1R; test: PathHunter β-arrestin assay
Procedure, shortened: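 Agonist concentration–response (22 points, 2-fold steps, duplicates) was run on cells plated the previous day in BSA-supplemented (0.2%) medium. Stimulation lasted 90 min at 37 °C, followed by a 3 h dark incubation with detection reagent at room temperature and a luminescence read.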

GIP-R = biological target: T2, GIP-R (Homo sapiens, UniProt P48546); test: HitHunter cAMP assay (GIP-R); details: cAMP; for Emax: read-out: (Emax) GIP-R
T2 sequence (P48546 22-466): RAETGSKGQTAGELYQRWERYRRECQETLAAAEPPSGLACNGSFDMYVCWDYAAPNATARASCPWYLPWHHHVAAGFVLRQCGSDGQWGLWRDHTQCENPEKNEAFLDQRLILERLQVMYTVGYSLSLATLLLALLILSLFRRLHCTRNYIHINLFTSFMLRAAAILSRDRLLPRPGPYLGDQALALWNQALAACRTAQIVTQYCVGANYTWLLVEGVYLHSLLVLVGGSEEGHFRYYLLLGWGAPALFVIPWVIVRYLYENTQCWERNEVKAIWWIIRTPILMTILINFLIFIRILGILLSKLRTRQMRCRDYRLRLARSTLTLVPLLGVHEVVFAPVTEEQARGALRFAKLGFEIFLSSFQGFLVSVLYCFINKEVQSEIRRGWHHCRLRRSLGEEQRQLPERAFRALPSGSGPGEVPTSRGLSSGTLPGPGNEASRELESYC
Procedure, shortened: as §1

[3] = Table 3A, read-out: EC50 GLP-1R/nM
[4] = PathHunter β-arrestin assay, read-out: β-arrestin activity EC50
[5] = Table 3A, read-out: EC50 GIP-R/nM
[6] = Table 3, read-out: EC50 GLP-1R/nM
[7] = Table 3, read-out: EC50 GIP-R/nM

T1 sequence (P43220 24-463): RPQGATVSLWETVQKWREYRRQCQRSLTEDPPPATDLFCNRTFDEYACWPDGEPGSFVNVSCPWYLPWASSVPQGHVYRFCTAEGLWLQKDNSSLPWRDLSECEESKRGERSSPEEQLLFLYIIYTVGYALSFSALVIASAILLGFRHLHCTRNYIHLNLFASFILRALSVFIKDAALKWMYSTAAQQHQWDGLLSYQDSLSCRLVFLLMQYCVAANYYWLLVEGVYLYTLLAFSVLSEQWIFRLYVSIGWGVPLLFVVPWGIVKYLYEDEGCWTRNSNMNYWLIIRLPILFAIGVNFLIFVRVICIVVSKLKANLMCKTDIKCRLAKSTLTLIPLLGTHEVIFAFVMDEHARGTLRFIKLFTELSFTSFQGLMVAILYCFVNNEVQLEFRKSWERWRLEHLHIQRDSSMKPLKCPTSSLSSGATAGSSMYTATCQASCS

| SMILES | EC50 (GLP-1R [1]; [3]) | EC50 (GLP-1R [2]; [4]) | Emax (GIP-R; Table 3A) | EC50 (GIP-R; [5]) | Emax (GLP-1R [1]; Table 3) | EC50 (GLP-1R [1]; [6]) | Emax (GLP-1R [1]; Table 3A) | Emax (GIP-R; Table 3) | EC50 (GIP-R; [7]) | EC50 (GLP-1R [1]; EC50 GLP-1R/nM, Table 3) | EC50 (GLP-1R [1]; EC50 GLP-1R/nM, Table 3A) | EC50 (GLP-1R [2]) | EC50 (GIP-R; EC50 GIP-R/nM, Table 3) | EC50 (GIP-R; EC50 GIP-R/nM, Table 3A) |
| --- | --- | --- | --- | --- | --- | --- | --- | --- | --- | --- | --- | --- | --- | --- |
| CCCCCCCCCCCCCCCC(=O)N[C@@H](CCC(=O)NCCCC[C@H](NC(=O)[C@H](CO)NC(=O)[C@@H]1CCCN1C(=O)[C@@H]1CCCN1C(=O)[C@@H]1CCCN1C(=O)[C@H](C)NC(=O)CNC(=O)[C@H](CO)NC(=O)[C@H](CO)NC(=O)[C@@H]1CCCN1C(=O)CNC(=O)CNC(=O)[C@H](C)NC(=O)[C@H](CC(C)C)NC(=O)[C@H](CC(C)C)NC(=O)[C@H](Cc1c[nH]c2ccccc12)NC(=O)[C@H](CC(N)=O)NC(=O)[C@@H](NC(=O)[C@H](Cc1ccccc1)NC(=O)[C@H](CCC(=O)O)NC(=O)C(C)(C)NC(=O)[C@H](C)NC(=O)[C@H](C)NC(=O)[C@H](CCC(N)=O)NC(=O)[C@H](CCCCN)NC(=O)[C@H](CC(=O)O)NC(=O)[C@H](CC(C)C)NC(=O)[C@H](Cc1ccc(O)cc1)NC(=O)[C@@H](NC(=O)[C@H](CO)NC(=O)[C@H](Cc1ccc(O)cc1)NC(=O)[C@H](CC(=O)O)NC(=O)[C@H](CO)NC(=O)[C@@H](NC(=O)[C@H](Cc1ccccc1)NC(=O)[C@@H](NC(=O)CNC(=O)[C@H](CCC(=O)O)NC(=O)CC(C)(C)C(=O)NCCN1CCCCC1=O)[C@@H](C)O)[C@@H](C)O)[C@@H](C)CC)C(C)C)C(N)=O)C(=O)O [Compound 204] | < 0.1 nM | 20 to 1000 nM | 98% | 10 to 100 nM |  |  |  |  |  |  |  |  |  |  |
| CCCCCCCCCCCCCCCC(=O)N[C@@H](CCC(=O)NCCCC[C@H](NC(=O)[C@H](CO)NC(=O)[C@@H]1CCCN1C(=O)[C@@H]1CCCN1C(=O)[C@@H]1CCCN1C(=O)[C@H](C)NC(=O)CNC(=O)[C@H](CO)NC(=O)[C@H](CO)NC(=O)[C@@H]1CCCN1C(=O)CNC(=O)CNC(=O)[C@H](C)NC(=O)[C@H](CC(C)C)NC(=O)[C@H](CC(C)C)NC(=O)[C@H](Cc1c[nH]c2ccccc12)NC(=O)[C@H](CC(N)=O)NC(=O)[C@@H](NC(=O)[C@H](Cc1ccccc1)NC(=O)[C@H](CCC(=O)O)NC(=O)C(C)(C)NC(=O)[C@H](C)NC(=O)[C@H](C)NC(=O)[C@H](CCC(N)=O)NC(=O)[C@H](CCCCN)NC(=O)[C@H](CC(=O)O)NC(=O)[C@H](CC(C)C)NC(=O)[C@H](Cc1ccc(O)cc1)NC(=O)[C@@H](NC(=O)[C@H](CO)NC(=O)[C@H](Cc1ccc(O)cc1)NC(=O)[C@H](CC(=O)O)NC(=O)[C@H](CO)NC(=O)[C@@H](NC(=O)[C@H](Cc1ccccc1)NC(=O)[C@@H](NC(=O)CNC(=O)[C@H](CCC(=O)O)NC(=O)CSCC(=O)NCCN1CCCOC1=O)[C@@H](C)O)[C@@H](C)O)[C@@H](C)CC)C(C)C)C(N)=O)C(=O)O [Compound 6] | 0.1 to 1 nM | > 1000 nM | 75% | 1 to 10 nM | 95% | 0.1 to 1 nM | 95% | 75% | 1 to 10 nM |  |  |  |  |  |
| CC[C@H](C)[C@H](NC(=O)[C@H](CO)NC(=O)[C@H](Cc1ccc(O)cc1)NC(=O)[C@H](CC(=O)O)NC(=O)[C@H](CO)NC(=O)[C@@H](NC(=O)[C@H](Cc1ccccc1)NC(=O)[C@@H](NC(=O)CNC(=O)[C@H](CCC(=O)O)NC(=O)CCCNC(=O)CN1C(=O)CSC1=O)[C@@H](C)O)[C@@H](C)O)C(=O)N[C@@H](Cc1ccc(O)cc1)C(=O)N[C@@H](CC(C)C)C(=O)N[C@@H](CC(=O)O)C(=O)N[C@@H](CCCCN)C(=O)N[C@@H](CCC(N)=O)C(=O)N[C@@H](C)C(=O)N[C@@H](C)C(=O)NC(C)(C)C(=O)N[C@@H](CCC(=O)O)C(=O)N[C@@H](Cc1ccccc1)C(=O)N[C@H](C(=O)N[C@@H](CC(N)=O)C(=O)N[C@@H](Cc1c[nH]c2ccccc12)C(=O)N[C@@H](CC(C)C)C(=O)N[C@@H](CC(C)C)C(=O)N[C@@H](C)C(=O)NCC(=O)NCC(=O)N1CCC[C@H]1C(=O)N[C@@H](CO)C(=O)N[C@@H](CO)C(=O)NCC(=O)N[C@@H](C)C(=O)N1CCC[C@H]1C(=O)N1CCC[C@H]1C(=O)N1CCC[C@H]1C(=O)N[C@@H](CO)C(=O)N[C@@H](CCCCN)C(N)=O)C(C)C [Compound 178] | 1 to 10 nM | > 1000 nM | 38% | 100 to 1000 nM | 97% | 1 to 10 nM | 97% | 38% | 100 to 1000 nM |  |  |  |  |  |
| CC[C@H](C)[C@H](NC(=O)[C@H](CO)NC(=O)[C@H](Cc1ccc(O)cc1)NC(=O)[C@H](CC(=O)O)NC(=O)[C@H](CO)NC(=O)[C@@H](NC(=O)[C@H](Cc1ccccc1)NC(=O)[C@@H](NC(=O)CNC(=O)[C@H](CCC(=O)O)NC(=O)CSCC(=O)NCCN1C(=O)CCCC1=O)[C@@H](C)O)[C@@H](C)O)C(=O)N[C@@H](Cc1ccc(O)cc1)C(=O)N[C@@H](CC(C)C)C(=O)N[C@@H](CC(=O)O)C(=O)N[C@@H](CCCCN)C(=O)N[C@@H](CCC(N)=O)C(=O)N[C@@H](C)C(=O)N[C@@H](C)C(=O)NC(C)(C)C(=O)N[C@@H](CCC(=O)O)C(=O)N[C@@H](Cc1ccccc1)C(=O)N[C@H](C(=O)N[C@@H](CC(N)=O)C(=O)N[C@@H](Cc1c[nH]c2ccccc12)C(=O)N[C@@H](CC(C)C)C(=O)N[C@@H](CC(C)C)C(=O)N[C@@H](C)C(=O)NCC(=O)NCC(=O)N1CCC[C@H]1C(=O)N[C@@H](CO)C(=O)N[C@@H](CO)C(=O)NCC(=O)N[C@@H](C)C(=O)N1CCC[C@H]1C(=O)N1CCC[C@H]1C(=O)N1CCC[C@H]1C(=O)N[C@@H](CO)C(=O)N[C@@H](CCCCN)C(N)=O)C(C)C [Compound 138] |  |  | 81% |  | 87% |  | 87% | 81% |  | 1 to 10 nM | 1 to 10 nM | > 1000 nM | 1 to 10 nM | 1 to 10 nM |
| CCCCCCCCCCCCCCCC(=O)N[C@@H](CCC(=O)NCCCC[C@H](NC(=O)[C@H](CO)NC(=O)[C@@H]1CCCN1C(=O)[C@@H]1CCCN1C(=O)[C@@H]1CCCN1C(=O)[C@H](C)NC(=O)CNC(=O)[C@H](CO)NC(=O)[C@H](CO)NC(=O)[C@@H]1CCCN1C(=O)CNC(=O)CNC(=O)[C@H](C)NC(=O)[C@H](CC(C)C)NC(=O)[C@H](CC(C)C)NC(=O)[C@H](Cc1c[nH]c2ccccc12)NC(=O)[C@H](CC(N)=O)NC(=O)[C@@H](NC(=O)[C@H](Cc1ccccc1)NC(=O)[C@H](CCC(=O)O)NC(=O)C(C)(C)NC(=O)[C@H](C)NC(=O)[C@H](C)NC(=O)[C@H](CCC(N)=O)NC(=O)[C@H](CCCCN)NC(=O)[C@H](CC(=O)O)NC(=O)[C@H](CC(C)C)NC(=O)[C@H](Cc1ccc(O)cc1)NC(=O)[C@@H](NC(=O)[C@H](CO)NC(=O)[C@H](Cc1ccc(O)cc1)NC(=O)[C@H](CC(=O)O)NC(=O)[C@H](CO)NC(=O)[C@@H](NC(=O)[C@H](Cc1ccccc1)NC(=O)[C@@H](NC(=O)CNC(=O)[C@H](CCC(=O)O)NC(=O)CSCC(=O)NCCN1C[C@H](OC)CC1=O)[C@@H](C)O)[C@@H](C)O)[C@@H](C)CC)C(C)C)C(N)=O)C(=O)O [Compound 8] |  |  | 57% |  | 90% |  | 90% | 57% |  | < 0.1 nM | < 0.1 nM | > 1000 nM | 1 to 10 nM | 1 to 10 nM |
| CCCCCCCCCCCCCCCC(=O)N[C@@H](CCC(=O)NCCCC[C@H](NC(=O)[C@H](CO)NC(=O)[C@@H]1CCCN1C(=O)[C@@H]1CCCN1C(=O)[C@@H]1CCCN1C(=O)[C@H](C)NC(=O)CNC(=O)[C@H](CO)NC(=O)[C@H](CO)NC(=O)[C@@H]1CCCN1C(=O)CNC(=O)CNC(=O)[C@H](C)NC(=O)[C@H](CC(C)C)NC(=O)[C@H](CC(C)C)NC(=O)[C@H](Cc1c[nH]c2ccccc12)NC(=O)[C@H](CC(N)=O)NC(=O)[C@@H](NC(=O)[C@H](Cc1ccccc1)NC(=O)[C@H](CCC(=O)O)NC(=O)C(C)(C)NC(=O)[C@H](C)NC(=O)[C@H](C)NC(=O)[C@H](CCC(N)=O)NC(=O)[C@H](CCCCN)NC(=O)[C@H](CC(=O)O)NC(=O)[C@H](CC(C)C)NC(=O)[C@H](Cc1ccc(O)cc1)NC(=O)[C@@H](NC(=O)[C@H](CO)NC(=O)[C@H](Cc1ccc(O)cc1)NC(=O)[C@H](CC(=O)O)NC(=O)[C@H](CO)NC(=O)[C@@H](NC(=O)[C@H](Cc1ccccc1)NC(=O)[C@@H](NC(=O)CNC(=O)[C@H](CCC(=O)O)NC(=O)CSCC(=O)NCCN1CCOC1=O)[C@@H](C)O)[C@@H](C)O)[C@@H](C)CC)C(C)C)C(N)=O)C(=O)O [Compound 39] | < 1 nM | > 1000 nM | 40 to 60% | 0.1 to 10 nM | 102 to 104% | < 1 nM | 102 to 104% | 40 to 60% | 0.1 to 10 nM |  |  |  |  |  |
